Patent US20170000129A1, “METHOD FOR TREATING MINERAL SLURRIES WITH A BIOCIDE” (priority 2015, published 2017)

What was measured:
[1] = test system: bacteria from a contaminated kaolin product; test: Kaolin slurry preservation test, challenge: on day 20 samples inoculated with ~10^5 cfu/ml bacteria from a contaminated kaolin product; type: cell-based
Description: (§1) In the comparative testing, dry kaolin was mixed with water to achieve a 65% solid slurry material. This material contained no biocide. The slurry was then split into 200 gram aliquots and dosed with different biocides at different concentration as shown in Tables 1-3. All samples were kept at 50° C. until the end of the testing, which was up to 28 days.
(§2) The protocol for the testing of each sample is as follows: • 1) dosed with a recorded level of biocide; • 2) mixed for 24 hours contact time and plated using standard method agar for bacterial growth; • 3) remixed daily for 1 hour and retested for bacterial growth at Day 3; • 4) remixed daily for 1 hour and retested for bacterial growth at Day 7; • 5) remixed daily for 1 hour and retested for bacterial growth at Day 14; • 6) on day 20, samples were split into two containers: one container was inoculated (or challenged) with ˜10^5 cfu/ml bacteria, the other was left “as treated”, the challenge material was obtained from a contaminated kaolin product and is assumed to be representative of the types of bacteria that are seen in the kaolin industry, and the two sets of samples were prepared for Day 21 testing; • 7) both sets were remixed daily for 1 hour and retested for bacterial growth at Day 21; and • 8) both sets remixed daily for 1 hour and retested for bacterial growth at Day 28.

[2] = test system: bacterial growth in kaolin slurry; test: Kaolin slurry preservation test: biocide-dosed 65% solids slurry plated on standard method agar, samples as treated; type: cell-based, bacteria
Description: as §1
A number of different and known biocides were used in the study and they include glutaraldehyde (glute), 1,2 benzithiazolin-3-one (BIT), tetrahydro-3-5-methyl-2H-1,3,5-thiadizine-2-thione (thione), isothiazoline (ISO), bronopol (BNPD) or orthophenyl phenate (OPP). For shorthand purposes, the study refers to the tradename of the biocide, which is found in the above listing of the biocides. Metam sodium is designated as SMDC and MDTCMA is used without change
as §2
Different contact times were used to see how quickly the bacterial population was effected by the biocide.

## CNC(=S)[S-].[Na+] [42% SMDC, sodium N-methyldithiocarbamate]
[1]; 500 ppm, Table 2
  Log Red, 21 day Challenge: 3
  Log Red, 28 day Challenge: 3
  cfu/mL, 21 day Challenge: 105,000 cfu/mL
  cfu/mL, 28 day Challenge: 16,000 cfu/mL
[1]; 1000 ppm, Table 2
  Log Red, 21 day Challenge: 3
  Log Red, 28 day Challenge: 3
  cfu/mL, 21 day Challenge: 59,000 cfu/mL
  cfu/mL, 28 day Challenge: 16,000 cfu/mL
[1]; 1000 ppm, Table 3
  Log Red, 21 day Challenge: 2
  Log Red, 28 day Challenge: 1
  cfu/mL, 21 day Challenge: 384,000 cfu/mL
  cfu/mL, 28 day Challenge: 3,000,000 cfu/mL
[1]; 1500 ppm, Table 3
  Log Red, 21 day Challenge: 5
  Log Red, 28 day Challenge: 5
  cfu/mL, 21 day Challenge: 100 cfu/mL
  cfu/mL, 28 day Challenge: 100 cfu/mL
[1]; Table 3, challenge testing
  biocide effectiveness in challenge testing: comparable to thione
[1]; after inoculation
  biocide effectiveness after inoculation, overall result of the studies: most effective biocides
[2]; 500 ppm, Table 1
  Log Red, contact time 1 day: 0
  Log Red, contact time 3 day: 1
  Log Red, contact time 7 day: 3
  cfu/mL, contact time 1 day: 24,340,000 cfu/mL
  cfu/mL, contact time 3 day: 2,600,000 cfu/mL
  cfu/mL, contact time 7 day: 30,000 cfu/mL
  performance against the BIT biocide when measuring log reduction: performed at least as well as the BIT biocide
[2]; 500 ppm, Table 2
  Log Red, contact time 1 day: 0
  Log Red, contact time 3 day: 2
  Log Red, contact time 7 day: 4
  Log Red, contact time 14 day: 4
  Log Red, contact time 21 day: 5
  Log Red, contact time 28 day: 4
  cfu/mL, contact time 1 day: 19,630,000 cfu/mL
  cfu/mL, contact time 3 day: 780,002 cfu/mL
  cfu/mL, contact time 7 day: 4,000 cfu/mL
  cfu/mL, contact time 14 day: 3,000 cfu/mL
  cfu/mL, contact time 21 day: 1,800 cfu/mL
  cfu/mL, contact time 28 day: 1,800 cfu/mL
[2]; 1000 ppm, Table 1
  Log Red, contact time 1 day: 0
  Log Red, contact time 3 day: 1
  Log Red, contact time 7 day: 5
  cfu/mL, contact time 1 day: 16,880,000 cfu/mL
  cfu/mL, contact time 3 day: 2,200,000 cfu/mL
  cfu/mL, contact time 7 day: 1,000 cfu/mL
  performance against the BIT biocide when measuring log reduction: far superior
[2]; 1000 ppm, Table 2
  Log Red, contact time 1 day: 0
  Log Red, contact time 3 day: 4
  Log Red, contact time 7 day: 4
  Log Red, contact time 14 day: 4
  Log Red, contact time 21 day: 5
  Log Red, contact time 28 day: 4
  cfu/mL, contact time 1 day: 12,560,000 cfu/mL
  cfu/mL, contact time 3 day: 4,800 cfu/mL
  cfu/mL, contact time 7 day: 2,400 cfu/mL
  cfu/mL, contact time 14 day: 2,600 cfu/mL
  cfu/mL, contact time 21 day: 900 cfu/mL
  cfu/mL, contact time 28 day: 900 cfu/mL
[2]; 1000 ppm, Table 3
  Log Red, contact time 1 day: 3
  Log Red, contact time 3 day: 2
  Log Red, contact time 7 day: 2
  Log Red, contact time 14 day: 3
  Log Red, contact time 21 day: 2
  Log Red, contact time 28 day: 2
  cfu/mL, contact time 1 day: 200 cfu/mL
  cfu/mL, contact time 3 day: 100 cfu/mL
  cfu/mL, contact time 7 day: 100 cfu/mL
  cfu/mL, contact time 14 day: 100 cfu/mL
  cfu/mL, contact time 21 day: 100 cfu/mL
  cfu/mL, contact time 28 day: 100 cfu/mL
[2]; 1500 ppm, Table 3
  Log Red, contact time 1 day: 3
  Log Red, contact time 3 day: 2
  Log Red, contact time 7 day: 2
  Log Red, contact time 14 day: 3
  Log Red, contact time 21 day: 2
  Log Red, contact time 28 day: 2
  cfu/mL, contact time 1 day: 100 cfu/mL
  cfu/mL, contact time 3 day: 100 cfu/mL
  cfu/mL, contact time 7 day: 100 cfu/mL
  cfu/mL, contact time 14 day: 100 cfu/mL
  cfu/mL, contact time 21 day: 100 cfu/mL
  cfu/mL, contact time 28 day: 100 cfu/mL
[2]; Table 2, up to 28 days
  biocide efficacy compared with known biocides: comparable biocide efficacy as compared to known biocides
[2]; Table 3, up to the 28 day testing, not challenge testing, 1000 and 1500 ppm
  biocide effectiveness compared with thione: performed on a par with the thione
